Measured values taken from patent US11572369B2, “Bicyclic pyridine compositions and methods of using the same for cancer therapy” (UNIVERSITY OF SOUTH CAROLINA, priority 2019, dated 2023).

Legend:
Assay in all cases: KINOMEscan
Format in all cases: binding
Settings in all cases: 2000 nM
EPHA5 = molecular target: T1, EPHA5 (Homo sapiens, UniProt P54756)
T1 construct: purchased DiscoveRx (KINOMEscan scanMAX panel)

ADCK3 = molecular target: T2, ADCK3 (Homo sapiens, UniProt Q8NI60)
T2 construct: purchased DiscoveRx (KINOMEscan scanMAX panel, service)

[1] = molecular target: T3, ABL1(F317I)-nonphosphorylated (Homo sapiens, UniProt P00519, F317I)
T3 construct: DNA label (qPCR read-out); purchased DiscoverX (KINOMEscan service)

IGF1R = molecular target: T4, IGF1R (Homo sapiens, UniProt P08069)
T4 construct: DNA label (qPCR read-out); purchased KINOMEscan (DiscoveRx) ScanMAX panel

TIE1 = molecular target: T5, TIE1 (Homo sapiens, UniProt P35590)
T5 construct: DNA label (qPCR read-out); purchased KINOMEscan (DiscoveRx) ScanMAX panel

DCAMKL1 = molecular target: T6, DCAMKL1 (Homo sapiens, UniProt O15075)
T6 construct: DNA label (qPCR read-out); purchased KINOMEscan (DiscoveRx) panel

PRKD2 = molecular target: T7, PRKD2 (Homo sapiens, UniProt Q9BZL6)
T7 construct: purchased DiscoveRx (KINOMEscan scanMAX panel)

ASK1 = molecular target: T8, ASK1 (Homo sapiens, UniProt Q99683)
T8 construct: DNA label (qPCR read-out); purchased KINOMEscan scanMAX panel (DiscoveRx)

p38-gamma = molecular target: T9, p38-gamma (Homo sapiens, UniProt P53778)
T9 construct: purchased DiscoverX (KINOMEscan service)

PKN1 = molecular target: T10, PKN1 (Homo sapiens, UniProt Q16512)
T10 construct: DNA label (qPCR read-out); purchased KINOMEscan (DiscoveRx) panel

CDKL5 = molecular target: T11, CDKL5 (Homo sapiens, UniProt O76039)
T11 construct: DNA label (for qPCR read-out); purchased DiscoveRx (KINOMEscan scanMAX service)

ARK5 = molecular target: T12, ARK5 (Homo sapiens, UniProt O60285)
T12 construct: DNA label (qPCR read-out); purchased KINOMEscan scanMAX panel (DiscoveRx)

RET = molecular target: T13, RET (Homo sapiens, UniProt P07949)
T13 construct: purchased DiscoveRx (KINOMEscan scanMAX panel)

CTK = molecular target: T14, CTK (Homo sapiens, UniProt P42679)
T14 construct: DNA label; purchased DiscoveRx (KINOMEscan scanMAX panel)

CAMK1G = molecular target: T15, CAMK1G (Homo sapiens, UniProt Q96NX5)
T15 construct: DNA label (qPCR read-out); purchased KINOMEscan (ScanMAX panel service)

MST1R = molecular target: T16, MST1R (Homo sapiens, UniProt Q04912)
T16 construct: DNA label (qPCR read-out); purchased KINOMEscan scanMAX panel (DiscoveRx)

YSK4 = YSK4 (Homo sapiens, UniProt Q56UN5)
FAK = molecular target: T17, FAK (Homo sapiens, UniProt Q05397)
T17 construct: DNA label (qPCR read-out); purchased DiscoveRx (KINOMEscan ScanMAX panel)

RIPK2 = molecular target: T18, RIPK2 (Homo sapiens, UniProt O43353)
T18 construct: DNA label (qPCR read-out); purchased DiscoveRx (KINOMEscan ScanMAX panel)

BRSK1 = molecular target: T19, BRSK1 (Homo sapiens, UniProt Q8TDC3)
T19 construct: DNA label (for qPCR read-out); purchased KINOMEscan scanMAX panel (DiscoveRx)

FGFR4 = molecular target: T20, FGFR4 (Homo sapiens, UniProt P22455)
T20 construct: purchased DiscoveRx (KINOMEscan scanMAX panel)

PAK1 = molecular target: T21, PAK1 (Homo sapiens, UniProt Q13153)
T21 construct: purchased DiscoverX (KINOMEscan service)

YANK2 = molecular target: T22, YANK2 (Homo sapiens, UniProt Q9NY57)
T22 construct: purchased KINOMEscan (DiscoveRx) panel service

ACVR1 = molecular target: T23, ACVR1 (Homo sapiens, UniProt Q04771)
T23 construct: purchased DiscoveRx (KINOMEscan scanMAX panel, service)

SRPK3 = molecular target: T24, SRPK3 (Homo sapiens, UniProt Q9UPE1)
T24 construct: purchased KINOMEscan (DiscoveRx)

ERK4 = molecular target: T25, ERK4 (Homo sapiens, UniProt P31152)
T25 construct: DNA label (qPCR read-out); purchased DiscoveRx (KINOMEscan ScanMAX panel)

CDK4 = molecular target: T26, CDK4 (Homo sapiens, UniProt P11802)
T26 construct: purchased DiscoverX (KINOMEscan service)

ALK(L1196M) = molecular target: T27, ALK(L1196M) (Homo sapiens, UniProt Q9UM73, L1196M)
T27 construct: DNA label (qPCR read-out); purchased KINOMEscan scanMAX panel (DiscoveRx)

GRK2 = molecular target: T28, GRK2 (Homo sapiens, UniProt P25098)
T28 construct: DNA label (for qPCR read-out); purchased DiscoveRx (KINOMEscan scanMAX panel, contract assay)

MARK4 = molecular target: T29, MARK4 (Homo sapiens, UniProt Q96L34)
T29 construct: purchased DiscoveRx (KINOMEscan scanMAX panel, service)

BUB1 = molecular target: T30, BUB1 (Homo sapiens, UniProt O43683)
T30 construct: DNA label (for qPCR read-out); purchased KINOMEscan scanMAX panel (DiscoveRx)

NLK = molecular target: T31, NLK (Homo sapiens, UniProt Q9UBE8)
T31 construct: DNA label (qPCR read-out); purchased KINOMEscan (ScanMAX panel service)

EGFR(L747-T751del, Sins) = molecular target: T32, EGFR(L747-T751del, Sins) (Homo sapiens, UniProt P00533, DEL747-750/T751S)
T32 construct: purchased DiscoveRx (KINOMEscan scanMAX panel)

CDKL2 = molecular target: T33, CDKL2 (Homo sapiens, UniProt Q92772)
T33 construct: DNA label (for qPCR read-out); purchased DiscoveRx (KINOMEscan scanMAX service)

FLT3(R834Q) = molecular target: T34, FLT3(R834Q) (Homo sapiens, UniProt P36888, R834Q)
T34 construct: purchased KINOMEscan (DiscoveRx)

PKNB(M.tuberculosis) = molecular target: T35, PKNB(M.tuberculosis) (Mycobacterium tuberculosis, UniProt P9WI81)
T35 construct: purchased DiscoveRx (KINOMEscan scanMAX panel)

T31 sequence (Q9UBE8 whole entry): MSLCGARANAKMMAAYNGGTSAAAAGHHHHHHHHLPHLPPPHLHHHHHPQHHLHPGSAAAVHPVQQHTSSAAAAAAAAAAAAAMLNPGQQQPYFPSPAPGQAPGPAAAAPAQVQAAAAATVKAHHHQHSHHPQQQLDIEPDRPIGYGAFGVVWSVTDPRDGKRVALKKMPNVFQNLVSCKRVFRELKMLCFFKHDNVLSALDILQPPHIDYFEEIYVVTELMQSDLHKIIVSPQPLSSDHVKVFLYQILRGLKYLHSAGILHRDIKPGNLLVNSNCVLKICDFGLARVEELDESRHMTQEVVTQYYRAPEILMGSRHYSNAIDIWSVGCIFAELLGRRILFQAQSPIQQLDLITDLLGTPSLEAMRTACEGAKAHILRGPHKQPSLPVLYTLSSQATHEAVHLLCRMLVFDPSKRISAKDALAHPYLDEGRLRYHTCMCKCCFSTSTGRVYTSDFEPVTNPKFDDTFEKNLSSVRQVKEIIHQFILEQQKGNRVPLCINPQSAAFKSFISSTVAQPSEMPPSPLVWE
T4 sequence (P08069 31-1367): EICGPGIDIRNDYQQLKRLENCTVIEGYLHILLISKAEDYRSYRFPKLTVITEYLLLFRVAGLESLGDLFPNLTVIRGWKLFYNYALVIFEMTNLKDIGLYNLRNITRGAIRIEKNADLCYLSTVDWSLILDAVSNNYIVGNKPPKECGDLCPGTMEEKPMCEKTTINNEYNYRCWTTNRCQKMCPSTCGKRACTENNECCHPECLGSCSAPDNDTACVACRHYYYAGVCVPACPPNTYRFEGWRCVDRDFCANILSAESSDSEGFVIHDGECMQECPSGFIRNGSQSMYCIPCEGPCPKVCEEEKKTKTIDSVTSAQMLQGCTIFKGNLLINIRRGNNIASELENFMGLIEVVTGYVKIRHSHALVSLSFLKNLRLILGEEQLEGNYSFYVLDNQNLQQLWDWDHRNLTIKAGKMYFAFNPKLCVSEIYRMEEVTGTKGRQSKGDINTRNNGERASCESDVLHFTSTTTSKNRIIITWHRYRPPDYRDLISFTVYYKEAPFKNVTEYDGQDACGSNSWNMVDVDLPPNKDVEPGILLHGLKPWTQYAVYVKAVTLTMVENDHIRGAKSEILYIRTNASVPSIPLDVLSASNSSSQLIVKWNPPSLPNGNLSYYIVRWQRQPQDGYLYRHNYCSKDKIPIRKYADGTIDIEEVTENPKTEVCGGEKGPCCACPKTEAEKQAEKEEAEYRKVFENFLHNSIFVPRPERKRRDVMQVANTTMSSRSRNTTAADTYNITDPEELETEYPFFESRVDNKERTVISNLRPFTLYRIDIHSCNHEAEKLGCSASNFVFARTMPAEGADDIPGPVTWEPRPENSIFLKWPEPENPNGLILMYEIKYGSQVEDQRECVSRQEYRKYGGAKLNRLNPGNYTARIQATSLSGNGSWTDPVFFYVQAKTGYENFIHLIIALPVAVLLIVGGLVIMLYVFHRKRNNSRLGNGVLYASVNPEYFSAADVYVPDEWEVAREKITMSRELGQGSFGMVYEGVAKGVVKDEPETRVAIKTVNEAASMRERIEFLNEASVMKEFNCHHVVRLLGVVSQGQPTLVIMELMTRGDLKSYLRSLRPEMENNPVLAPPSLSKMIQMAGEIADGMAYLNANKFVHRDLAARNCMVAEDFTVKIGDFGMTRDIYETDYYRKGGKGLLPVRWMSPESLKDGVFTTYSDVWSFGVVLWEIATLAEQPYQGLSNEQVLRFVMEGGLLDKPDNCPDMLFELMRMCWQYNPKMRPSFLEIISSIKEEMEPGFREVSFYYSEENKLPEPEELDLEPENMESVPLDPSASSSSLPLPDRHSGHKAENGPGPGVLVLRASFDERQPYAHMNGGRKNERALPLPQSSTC
T10 sequence (Q16512 whole entry): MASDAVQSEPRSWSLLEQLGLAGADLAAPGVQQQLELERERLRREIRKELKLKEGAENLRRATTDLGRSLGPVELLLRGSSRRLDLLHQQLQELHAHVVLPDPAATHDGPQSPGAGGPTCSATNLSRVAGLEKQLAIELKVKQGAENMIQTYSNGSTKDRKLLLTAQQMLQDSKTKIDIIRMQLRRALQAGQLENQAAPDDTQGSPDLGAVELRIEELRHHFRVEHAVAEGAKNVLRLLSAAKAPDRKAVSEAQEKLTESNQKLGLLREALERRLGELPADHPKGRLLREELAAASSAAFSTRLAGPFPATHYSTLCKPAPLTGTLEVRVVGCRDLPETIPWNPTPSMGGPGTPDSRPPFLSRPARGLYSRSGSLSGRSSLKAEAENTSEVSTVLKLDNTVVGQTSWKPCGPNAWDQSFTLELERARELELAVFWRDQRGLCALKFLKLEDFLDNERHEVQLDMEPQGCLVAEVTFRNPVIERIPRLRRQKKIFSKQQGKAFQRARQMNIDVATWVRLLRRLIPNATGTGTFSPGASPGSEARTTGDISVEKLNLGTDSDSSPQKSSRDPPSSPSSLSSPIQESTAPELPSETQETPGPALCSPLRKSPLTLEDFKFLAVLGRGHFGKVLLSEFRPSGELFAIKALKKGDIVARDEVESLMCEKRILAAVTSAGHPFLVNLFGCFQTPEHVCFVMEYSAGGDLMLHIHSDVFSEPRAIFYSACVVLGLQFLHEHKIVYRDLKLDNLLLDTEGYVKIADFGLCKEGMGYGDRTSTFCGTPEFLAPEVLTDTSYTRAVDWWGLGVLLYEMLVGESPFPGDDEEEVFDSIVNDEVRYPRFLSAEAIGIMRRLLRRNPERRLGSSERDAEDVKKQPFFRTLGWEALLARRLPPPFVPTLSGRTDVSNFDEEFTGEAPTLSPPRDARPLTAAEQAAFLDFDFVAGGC
T27 sequence (Q9UM73 19-1620 L1196M): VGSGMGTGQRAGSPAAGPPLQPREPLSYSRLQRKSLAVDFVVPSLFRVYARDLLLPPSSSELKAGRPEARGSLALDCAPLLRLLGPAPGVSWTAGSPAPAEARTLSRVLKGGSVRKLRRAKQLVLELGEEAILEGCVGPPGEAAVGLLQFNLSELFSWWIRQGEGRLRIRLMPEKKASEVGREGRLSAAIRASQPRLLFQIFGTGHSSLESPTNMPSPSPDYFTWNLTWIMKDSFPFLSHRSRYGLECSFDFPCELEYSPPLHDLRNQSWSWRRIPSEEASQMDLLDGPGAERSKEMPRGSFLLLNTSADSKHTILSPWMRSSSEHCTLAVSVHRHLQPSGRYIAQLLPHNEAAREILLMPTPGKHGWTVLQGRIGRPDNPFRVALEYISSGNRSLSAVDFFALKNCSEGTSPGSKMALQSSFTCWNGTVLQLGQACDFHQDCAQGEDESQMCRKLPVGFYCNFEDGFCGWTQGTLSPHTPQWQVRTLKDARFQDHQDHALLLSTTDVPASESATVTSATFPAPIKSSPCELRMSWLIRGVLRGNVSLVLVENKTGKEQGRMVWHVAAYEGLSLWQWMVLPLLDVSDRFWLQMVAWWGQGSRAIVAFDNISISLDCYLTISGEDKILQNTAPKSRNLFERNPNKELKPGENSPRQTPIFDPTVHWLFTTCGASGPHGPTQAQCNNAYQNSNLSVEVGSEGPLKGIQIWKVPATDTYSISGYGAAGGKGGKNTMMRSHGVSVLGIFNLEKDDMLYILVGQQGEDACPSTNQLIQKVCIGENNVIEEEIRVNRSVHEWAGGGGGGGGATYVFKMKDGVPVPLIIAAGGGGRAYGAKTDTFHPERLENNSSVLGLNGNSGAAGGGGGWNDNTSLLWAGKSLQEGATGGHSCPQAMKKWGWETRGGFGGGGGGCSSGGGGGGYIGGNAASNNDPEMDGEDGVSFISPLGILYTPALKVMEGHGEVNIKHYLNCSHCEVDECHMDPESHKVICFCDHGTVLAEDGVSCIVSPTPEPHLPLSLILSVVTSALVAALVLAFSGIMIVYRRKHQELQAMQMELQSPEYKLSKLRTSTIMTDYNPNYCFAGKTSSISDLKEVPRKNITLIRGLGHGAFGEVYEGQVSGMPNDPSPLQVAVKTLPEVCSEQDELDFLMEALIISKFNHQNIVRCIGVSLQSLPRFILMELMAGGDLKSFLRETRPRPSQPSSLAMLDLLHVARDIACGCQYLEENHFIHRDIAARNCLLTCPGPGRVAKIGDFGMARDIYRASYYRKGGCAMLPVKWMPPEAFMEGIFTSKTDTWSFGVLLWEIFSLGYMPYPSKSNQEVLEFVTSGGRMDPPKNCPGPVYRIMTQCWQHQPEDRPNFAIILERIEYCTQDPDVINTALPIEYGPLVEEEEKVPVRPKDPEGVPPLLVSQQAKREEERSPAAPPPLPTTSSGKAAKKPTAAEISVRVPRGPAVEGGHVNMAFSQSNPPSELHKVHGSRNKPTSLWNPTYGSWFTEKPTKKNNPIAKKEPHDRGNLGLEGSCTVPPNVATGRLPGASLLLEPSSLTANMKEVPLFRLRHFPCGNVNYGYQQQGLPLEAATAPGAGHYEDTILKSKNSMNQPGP
T15 sequence (Q96NX5 whole entry): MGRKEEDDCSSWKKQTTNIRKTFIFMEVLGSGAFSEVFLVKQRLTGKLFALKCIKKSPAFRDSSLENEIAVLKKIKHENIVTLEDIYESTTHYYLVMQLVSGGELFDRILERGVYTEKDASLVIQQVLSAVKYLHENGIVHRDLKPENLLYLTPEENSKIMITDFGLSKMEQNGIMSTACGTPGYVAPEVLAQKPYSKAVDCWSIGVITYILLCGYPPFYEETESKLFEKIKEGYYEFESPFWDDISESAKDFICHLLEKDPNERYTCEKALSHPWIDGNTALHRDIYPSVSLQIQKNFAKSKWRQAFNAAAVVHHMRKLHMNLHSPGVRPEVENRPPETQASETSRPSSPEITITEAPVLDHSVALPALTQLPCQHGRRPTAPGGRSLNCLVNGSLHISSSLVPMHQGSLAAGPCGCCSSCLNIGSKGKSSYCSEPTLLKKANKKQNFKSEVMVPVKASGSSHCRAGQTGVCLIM

[2H]C([2H])([2H])N(C(=O)c1ccc(N2CCCN(c3ccnc4sc(C(N)=O)c(N)c34)CC2)cc1)C([2H])([2H])[2H] [15u_D6, 3-amino-4-(4-(4-(bis(methyl-d3)carbamoyl)phenyl)-1,4-diazepan-1-yl)thieno[2,3-b]pyridine-2-carboxamide]
% Ctrl (EPHA5): 96 % Ctrl
% Ctrl (ADCK3): 100 % Ctrl
% Ctrl [1]: 93 % Ctrl
% Ctrl (IGF1R): 91 % Ctrl
% Ctrl (TIE1): 96 % Ctrl
% Ctrl (DCAMKL1): 89 % Ctrl
% Ctrl (PRKD2): 90 % Ctrl
% Ctrl (ASK1): 100 % Ctrl
% Ctrl (p38-gamma): 100 % Ctrl
% Ctrl (PKN1): 100 % Ctrl
% Ctrl (CDKL5): 84 % Ctrl
% Ctrl (ARK5): 77 % Ctrl
% Ctrl (RET): 86 % Ctrl
% Ctrl (CTK): 100 % Ctrl
% Ctrl (CAMK1G): 99 % Ctrl
% Ctrl (MST1R): 99 % Ctrl
% Ctrl (YSK4): 53 % Ctrl
% Ctrl (FAK): 96 % Ctrl
% Ctrl (RIPK2): 93 % Ctrl
% Ctrl (BRSK1): 97 % Ctrl
% Ctrl (FGFR4): 96 % Ctrl
% Ctrl (PAK1): 92 % Ctrl
% Ctrl (YANK2): 84 % Ctrl
% Ctrl (ACVR1): 100 % Ctrl
% Ctrl (SRPK3): 96 % Ctrl
% Ctrl (ERK4): 100 % Ctrl
% Ctrl (CDK4): 71 % Ctrl
% Ctrl (ALK(L1196M)): 92 % Ctrl
% Ctrl (GRK2): 70 % Ctrl
% Ctrl (MARK4): 98 % Ctrl
% Ctrl (BUB1): 80 % Ctrl
% Ctrl (NLK): 98 % Ctrl
% Ctrl (EGFR(L747-T751del, Sins)): 100 % Ctrl
% Ctrl (CDKL2): 96 % Ctrl
% Ctrl (FLT3(R834Q)): 68 % Ctrl
% Ctrl (PKNB(M.tuberculosis)): 90 % Ctrl

CN(C)C(=O)c1ccc(N2CCCN(c3ccnc4sc(C(N)=O)c(N)c34)CC2)cc1 [15u, 3-amino-4-(4-(4-(dimethylcarbamoyl)phenyl)-1,4-diazepan-1-yl)thieno[2,3-b]pyridine-2-carboxamide]
% Ctrl (EPHA5): 89 % Ctrl
% Ctrl (ADCK3): 90 % Ctrl
% Ctrl [1]: 100 % Ctrl
% Ctrl (IGF1R): 92 % Ctrl
% Ctrl (TIE1): 90 % Ctrl
% Ctrl (DCAMKL1): 100 % Ctrl
% Ctrl (PRKD2): 56 % Ctrl
% Ctrl (ASK1): 100 % Ctrl
% Ctrl (p38-gamma): 98 % Ctrl
% Ctrl (PKN1): 96 % Ctrl
% Ctrl (CDKL5): 100 % Ctrl
% Ctrl (ARK5): 57 % Ctrl
% Ctrl (RET): 93 % Ctrl
% Ctrl (CTK): 92 % Ctrl
% Ctrl (CAMK1G): 99 % Ctrl
% Ctrl (MST1R): 97 % Ctrl
% Ctrl (YSK4): 74 % Ctrl
% Ctrl (FAK): 100 % Ctrl
% Ctrl (RIPK2): 100 % Ctrl
% Ctrl (BRSK1): 86 % Ctrl
% Ctrl (FGFR4): 100 % Ctrl
% Ctrl (PAK1): 96 % Ctrl
% Ctrl (YANK2): 89 % Ctrl
% Ctrl (ACVR1): 100 % Ctrl
% Ctrl (SRPK3): 65 % Ctrl
% Ctrl (ERK4): 72 % Ctrl
% Ctrl (CDK4): 73 % Ctrl
% Ctrl (ALK(L1196M)): 96 % Ctrl
% Ctrl (GRK2): 88 % Ctrl
% Ctrl (MARK4): 100 % Ctrl
% Ctrl (BUB1): 88 % Ctrl
% Ctrl (NLK): 98 % Ctrl
% Ctrl (EGFR(L747-T751del, Sins)): 87 % Ctrl
% Ctrl (CDKL2): 86 % Ctrl
% Ctrl (FLT3(R834Q)): 100 % Ctrl
% Ctrl (PKNB(M.tuberculosis)): 100 % Ctrl
